Test results reported in PubChem BioAssay (NCI).
Where “and” joins values, the source holds several entries; their conditions need not be identical. Identical values can stand only once.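 Protocol summary: plate cells (96-well), add compound at 5 concentrations, incubate 48 h, interpolate endpoints linearly. Abbreviation: GI50, concentration required for 50% inhibition of growth. At the TGI there is no net growth.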

Legend:
Assay in all cases: NCI anticancer screen, dose series, 48 h
[1] = tested on: UACC-257 melanoma
[2] = tested on: MDA-N
[3] = tested on: OVCAR-3 ovarian
[4] = tested on: HCT-15 colon
[5] = tested on: OVCAR-8 ovarian
[6] = tested on: SW-620 colon
[7] = tested on: HCT-116 colon
[8] = tested on: MDA-MB-231 breast
[9] = tested on: DU-145 prostate
[10] = tested on: UACC-62 melanoma
[11] = tested on: COLO 205 colon
[12] = tested on: NCI/ADR-RES ovarian
[13] = tested on: A498 renal
[14] = tested on: CCRF-CEM leukemia

SMILES	TGI [1]	TGI [2]	TGI [3]	TGI [4]	TGI [5]	TGI [6]	TGI [7]	TGI [8]	TGI [9]	TGI [10]	TGI [11]	TGI [12]	TGI [13]	TGI [14]	GI50 [2]	GI50 [5]	GI50 [6]	GI50 [7]	GI50 [11]
c1ccc([P+](Cc2ccccc2C[P+](c2ccccc2)(c2ccccc2)c2ccccc2)(c2ccccc2)c2ccccc2)cc1	> 100 µM	> 100 µM	> 100 µM	> 100 µM	> 100 µM	> 100 µM	> 100 µM	> 100 µM	> 100 µM	> 100 µM	> 100 µM	> 100 µM	> 100 µM	–	–	–	–	–	–
CC(=O)Nc1ccc(-c2nc3ccccc3s2)cc1I	> 100 µM	> 100 µM	32.4 µM	> 100 µM	37.7 µM	> 100 µM	81 µM	> 65.1 µM	> 51 µM	> 76.9 µM	> 100 µM	> 96.3 µM	36.3 µM	> 100 µM	–	–	–	–	–
C=C(C)[C@H]1C=C[C@@H](OC(=O)c2cccnc2)[C@@]23CO[C@@](C)([C@H](OC(=O)c4cccnc4)[C@@]4(OC(C)=O)C[C@H](C)[C@H](OCCC)[C@@H]4[C@H]2OC(C)=O)[C@H]13	> 15 µM	> 15 µM	> 15 µM	> 15 µM	> 15 µM	> 15 µM	> 15 µM	> 15 µM	> 15 µM	> 15 µM	> 15 µM	> 15 µM	> 15 µM	> 15 µM	–	–	–	–	–
COc1ccc2[nH]cc([C@@H]3C4CCC(C4)[C@H]3NCc3cccc(CN[C@H]4C5CCC(C5)[C@@H]4c4c[nH]c5ccc(OC)cc45)c3)c2c1	3.15 µM and 2.74 µM	2.04 µM and 2.2 µM	2.89 µM and 3.02 µM	1.95 µM and 2.39 µM	1.86 µM and 2.35 µM	0.333 µM and 0.627 µM	1.08 µM and 2.02 µM	2.42 µM and 2.98 µM	3.31 µM and 3.08 µM	3.19 µM	1.2 µM and 0.427 µM	3.04 µM and 2.98 µM	3.22 µM and 3.25 µM	1.08 µM	0.776 µM	0.625 µM	0.177 µM	0.351 µM	0.206 µM
Cc1oc2c(Cl)cc(O)c(Cl)c2c2cccc1-2	> 100 µM	60.3 µM	56.6 µM	75.4 µM	82.6 µM	> 100 µM	36.4 µM	> 100 µM	27.5 µM	> 100 µM	> 100 µM	79.9 µM	> 100 µM	95.3 µM	–	–	–	–	–
CCCCCCOc1ccc(C(=O)NO)cc1	> 91.5 µM	34.1 µM	28.6 µM	16.1 µM	31.6 µM	35.8 µM	21.5 µM	21.9 µM	18.2 µM	20.6 µM	26 µM	18.5 µM	28.1 µM	5.27 µM	–	–	–	–	–
CC(NC(=O)C(N)CC(=O)O)NC(=O)C1CCC1 (stereo unspecified)	> 100 µM	> 100 µM	> 100 µM	> 100 µM	> 100 µM	> 100 µM	> 100 µM	> 100 µM	> 100 µM	> 100 µM	> 100 µM	> 100 µM	> 100 µM	> 100 µM	–	–	–	–	–
O=c1[nH]nc(Cc2ccccc2)n1/N=C\c1ccccc1	> 100 µM	> 100 µM	> 100 µM	> 100 µM	> 100 µM	> 100 µM	> 100 µM	> 100 µM	> 100 µM	> 100 µM	> 100 µM	> 100 µM	> 100 µM	> 100 µM	–	–	–	–	–
